Test results as given in patent US20050014811A1, “Substituted benzimidazole compounds and their use for the treatment of cancer” (Aventis Pharma S.A., priority 2001, published 2005).

What was measured:
CDK4/CyclinD1 = CDK4/CyclinD1 (Homo sapiens, UniProt P11802); assay: CDK4/CyclinD1 Flashplate assay, 96-well format, biotinylated-Rb peptide substrate; format: biochemical
Experimental: This is a CDK4/CyclinD1 kinase assay in a 96-well Streptavidin-coated Flashplate with a biotinylated-Rb peptide substrate.
(§1) Each point is tested in duplicate
Biotinylated-Rb: Biotin-[…]
• 1. Prepare substrate: 1 mg/ml solution made fresh in PBS. • 2. Add 100 μg per well to the Flashplate. • 3. Incubate for 2 hours at RT. • 4. From 10 mM inhibitor stocks in DMSO, make 1 mM, 300 μM, 100 μM, 30 μM and 10 μM series of dilution in DMSO. • 5. Wash the Flashplate 3 times with 300 μl PBS to remove unbound peptide substrate. • 6. Add the CDK4/CyclinD1 kinase: 70 ng per well, in a volume of 90 μl in kinase buffer (except for “no enzyme” control wells). • 7. Add 1 μl^1 per well of inhibitor to test 10 μM, 3 μM, 1 μM, 0.3 μM and 0.1 μM in final concentration per 100 μl in each well. • 8. Shake gently the Flashplate 1 minute. • 9. Incubate 30 minutes on wet ice. • 10. Initiate the reaction with 10 μl kinase buffer containing 1 μM final cold ATP and 1 μCi final ^33P-ATP per well. • 11. Shake gently the Flashplate 1 minute. • 12. Incubate 45 minutes at RT (no shaking). • 13. Wash the Flashplate 3 times with 300 μl PBS • 14. Count to detect the incorporation of ^33P-ATP by the kinase to the Rb phosphorylation site.

CDK2/CyclinE = CDK2/CyclinE (Homo sapiens, UniProt P24941); assay: CDK2/CyclinE Flashplate assay, 96-well format, biotinylated-Rb peptide substrate; format: biochemical
Experimental: This is a CDK2/CyclinE kinase assay in a 96-well Streptavidin-coated Flashplate with a biotinylated-Rb peptide substrate.
as §1
Biotinylated-Rb: Biotin-[…]-OH
• 1. Prepare substrate: 1 mg/ml solution made fresh in PBS. • 2. Add 4 μg per well to the Flashplate. • 3. Incubate for 2 hours at RT. • 4. From 10 mM inhibitor stocks in DMSO, make 1 mM, 300 μM, 100 μM, 30 μM and 10 μM series of dilution in DMSO. • 5. Was the Flashplate 3 times with 300 μl PBS to remove unbound peptide substrate. • 6. Add the CDK2/CyclinE kinase: 200 ng per well, in a volume of 90 μl in kinase buffer (except for “no enzyme” control wells). • 7. Add 1 μl per well of inhibitor to test 10 μM, 3 μM, 1 μM, 0.3 μM and 0.1 μM in final concentration per 100 μl in each well. • 8. Shake gently the Flashplate 1 minute. • 9. Incubate 30 minutes on wet ice. • 10. Initiate the reaction with 10 μl kinase buffer containing 1 μM final cold ATP and 1 μCi final ^33P-ATP per well. • 11. Shake gently the Flashplate 1 minute. • 12. Incubate 45 minutes at RT (no shaking). • 13. Wash the Flashplate 3 times with 300 μl PBS
14. Count to detect the incorporation of ^33P-ATP by the kinase to the Rb phosphorylation site.

Chain of CDK4/CyclinD1 (P11802 whole entry, species assumed): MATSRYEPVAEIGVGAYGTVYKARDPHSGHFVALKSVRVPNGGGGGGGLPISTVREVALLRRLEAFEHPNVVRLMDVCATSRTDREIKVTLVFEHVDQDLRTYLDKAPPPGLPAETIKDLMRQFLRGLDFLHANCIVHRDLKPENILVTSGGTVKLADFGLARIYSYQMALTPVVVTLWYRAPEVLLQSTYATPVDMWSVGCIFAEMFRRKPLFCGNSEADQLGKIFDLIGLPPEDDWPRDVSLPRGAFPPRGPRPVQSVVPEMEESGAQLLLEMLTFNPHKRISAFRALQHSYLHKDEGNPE
Chain of CDK4/CyclinD1 (P24385 whole entry partner, species assumed): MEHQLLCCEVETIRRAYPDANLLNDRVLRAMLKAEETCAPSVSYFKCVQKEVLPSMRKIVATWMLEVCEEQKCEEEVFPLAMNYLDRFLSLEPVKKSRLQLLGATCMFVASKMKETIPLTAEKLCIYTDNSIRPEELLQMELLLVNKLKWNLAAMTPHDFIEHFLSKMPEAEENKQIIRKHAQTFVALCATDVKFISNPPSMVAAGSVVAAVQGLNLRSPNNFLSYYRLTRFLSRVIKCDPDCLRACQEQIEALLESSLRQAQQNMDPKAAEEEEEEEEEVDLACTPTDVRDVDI

| Structure (SMILES) | IC50 (CDK4/CyclinD1) [nM] | IC50 (CDK2/CyclinE) [nM] | inhibition at 10 µM (CDK4/CyclinD1) [%] |
| --- | --- | --- | --- |
| O=C(Nc1nc2cc(OS(=O)(=O)c3ccc(NC4CCCC4)cc3)ccc2[nH]1)C1CC1 [Example 27, 4-Cyclopentylamino-benzenesulfonic acid 2-(cyclopropanecarbonyl-amino)-1H-benzoimidazol-5-yl ester] | 600 | 42 | – |
| Cc1cc(C)cc(Nc2nc3cc(OS(=O)(=O)c4ccc(NC5CCCC5)cc4)ccc3[nH]2)c1 [Example 70-c, 4-Cyclopentylamino-benzenesulfonic acid 2-(3,5-dimethyl-phenylamino)-1H-benzoimidazol-5-yl ester] | 2000 | 800 | – |
| CN(C)CC(=O)Nc1nc2cc(OS(=O)(=O)c3ccc(NC4CCCC4)cc3)ccc2[nH]1 [Example 29, 4-Cyclopentylamino-benzenesulfonic acid 2-(2-dimethylamino-acetylamino)-1H-benzoimidazol-5-yl ester] | 1700 | 600 | – |
| COc1ccc(Nc2nc3cc(OS(=O)(=O)c4ccc(NC5CCCC5)cc4)ccc3[nH]2)cc1OC [Example 69, 4-cyclopentylamino-benzenesulfonic acid 2-(3,4-dimethoxy-phenylamino)-1H-benzoimidazol-5-yl ester] | 840 | 130 | – |
| COC(=O)Nc1nc2cc(OS(=O)(=O)c3ccsc3C(=O)OC)ccc2[nH]1 [Example 62-j, 3-(2-Methoxycarbonylamino-1H-benzoimidazol-5-yloxysulfonyl)-thiophene-2-carboxylic acid methyl ester] | – | 1500 | – |
| COc1cc(Nc2nc3cc(OS(=O)(=O)c4ccc(NC5CCCC5)cc4)ccc3[nH]2)cc(C(F)(F)F)c1 [Example 70-f, 4-Cyclopentylamino-benzenesulfonic acid 2-(3-methoxy-5-trifluoromethyl-phenylamino)-1H-benzoimidazol-5-yl ester] | – | 5000 | – |
| O=C(NCc1cccnc1)Nc1nc2cc(OS(=O)(=O)c3ccc(-n4ccnc4)cc3)ccc2[nH]1 [Example 57-j, 4-Imidazol-1-yl-benzenesulfonic acid 2-(3-pyridin-3-ylmethyl-ureido)-1H-benzoimidazol-5-yl ester] | – | 100 | – |
| COC(=O)Nc1nc2cc(OS(=O)(=O)c3ccccc3OC(F)(F)F)ccc2[nH]1 [Example 62-g, 2-Trifluoromethoxy-benzenesulfonic acid 2-methoxycarbonylamino-1H-benzoimidazol-5-yl ester] | – | 1000 | – |
| COC(=O)Nc1nc2cc(OS(=O)(=O)c3ccc(-c4ccon4)s3)ccc2[nH]1 [Example 62-c, 5-Isoxazol-3-yl-thiophene-2-sulfonic acid 2-methoxycarbonylamino-1H-benzoimidazol-5-yl ester] | – | 800 | – |
| CCOC(=O)C1CCN(C(=O)Nc2nc3cc(OS(=O)(=O)c4ccc(NC5CCCC5)cc4)ccc3[nH]2)CC1 [Example 58-t, 1-[5-(4-Cyclopentylamino-benzenesulfonyloxy)-1H-benzoimidazol-2-yl-carbamoyl]-piperidine-4-carboxylic acid ethyl ester] | 9000 | – | – |
| O=C(Nc1nc2cc(OS(=O)(=O)c3ccc(NCCN4CCNCC4)cc3)ccc2[nH]1)C1CC1 [Example 60-aa, 4-(2-Piperazin-1-yl-ethylamino)-benzene-sulfonic acid 2-(cyclopropanecarbonyl-amino)-1H-benzoimidazol-5-yl ester] | 3900 | – | – |
| CCOC(=O)CCCNC(=O)Nc1nc2cc(OS(=O)(=O)c3ccc(NC4CCCC4)cc3)ccc2[nH]1 [Example 58-n, 4-{3-[5-(4-Cyclopentylamino-benzenesulfonyloxy)-1H-benzoimidazol-2-yl]-ureido}-butyric acid ethyl ester] | 600 | – | – |
| COCCNC(=O)Nc1nc2cc(OS(=O)(=O)c3ccc(NC(C)CO)cc3)ccc2[nH]1 (stereo not shown) [Example 78-k, 4-(2-Hydroxy-1-methyl-ethylamino)-benzenesulfonic acid 2-[3-(2-methoxy-ethyl)-ureido]-1H-benzoimidazol-5-yl ester] | – | – | 78 |
| CN1CCN(CCCNc2ccc(S(=O)(=O)Oc3ccc4[nH]c(NC(=O)C5CC5)nc4c3)cc2)CC1 [Example 60-n, 4-[3-(4-Methyl-piperazin-1-yl)-propylamino]-benzenesulfonic acid 2-(cyclopropanecarbonyl-amino)-1H-benzoimidazol-5-yl ester] | 2000 | – | – |
| CNc1ccc(S(=O)(=O)Oc2ccc3[nH]c(NC(=O)C4CC4)nc3c2)cc1 [Example 60-b, 4-Methylamino-benzenesulfonic acid 2-(cyclopropanecarbonyl-amino)-1H-benzoimidazol-5-yl ester] | 150 | – | – |

Further lines, results first:

| IC50 (CDK4/CyclinD1) [nM] | IC50 (CDK2/CyclinE) [nM] | inhibition at 10 µM (CDK4/CyclinD1) [%] | Structure (SMILES) |
| --- | --- | --- | --- |
| 1600 | 100 | – | COCC(C)NC(=O)Nc1nc2cc(OS(=O)(=O)c3ccc(NCC4CCCO4)cc3)ccc2[nH]1 (stereo not shown) [Example 59-e, 4-[(Tetrahydro-furan-2-ylmethyl)-amino]-benzenesulfonic acid 2-[3-(2-methoxy-1-methyl-ethyl)-ureido]-1H-benzoimidazol-5-yl ester] |
| 650 | 300 | – | COc1ccc(Nc2nc3cc(OS(=O)(=O)c4ccc(NC5CCCC5)cc4)ccc3[nH]2)cc1 [Example 70-d, 4-Cyclopentylamino-benzenesulfonic acid 2-(4-methoxy-phenylamino)-1H-benzoimidazol-5-yl ester] |
| 1000 | 7 | – | O=C(NCCCO)Nc1nc2cc(OS(=O)(=O)c3ccc(NCC4CCCO4)cc3)ccc2[nH]1 (stereo not shown) [Example 59-c, 4-[(Tetrahydro-furan-2-ylmethyl)-amino]-benzenesulfonic acid 2-[3-(3-hydroxy-propyl)-ureido]-1H-benzoimidazol-5-yl ester] |
| – | 1000 | – | COC(=O)Nc1nc2cc(OS(=O)(=O)c3ccc(OCC(=O)NCc4ccco4)cc3)ccc2[nH]1 [Example 66-c, 4-{[(furan-2-ylmethyl)-carbamoyl]-methoxy}-benzenesulfonic acid 2-methoxycarbonylamino-1H-benzoimidazol-5-yl ester] |
| – | 1500 | – | CCOC(=O)c1cccc(Nc2nc3cc(OS(=O)(=O)c4ccc(NC5CCCC5)cc4)ccc3[nH]2)c1 [Example 70-g, 3-[5-(4-Cyclopentylamino-benzenesulfonyloxy)-1H-benzoimidazol-2-ylamino]-benzoic acid ethyl ester] |
| – | 1500 | – | COC(=O)Nc1nc2cc(OS(=O)(=O)c3cccc(OC(F)(F)F)c3)ccc2[nH]1 [Example 62-f, 3-Trifluoromethoxy-benzenesulfonic acid 2-methoxycarbonylamino-1H-benzoimidazol-5-yl ester] |
| – | 130 | – | CN(C)CCNC(=O)Nc1nc2cc(OS(=O)(=O)c3ccc(NC4CCCC4)cc3)ccc2[nH]1 [Example 44, 4-Cyclopentylamino-benzenesulfonic acid 2-[3-(2-dimethylamino-ethyl)-ureido]-1H-benzoimidazol-5-yl ester] |
| – | 1000 | – | COC(=O)Nc1nc2cc(OS(=O)(=O)c3ccc(OCC(=O)N4CCCC4)cc3)ccc2[nH]1 [Example 65, 4-(2-oxo-2-pyrrolidin-1-yl-ethoxy)-benzenesulfonic acid 2-methoxycarbonylamino-1H-benzoimidazol-5-yl-ester] |
| – | 100 | – | O=C(NCc1ccccc1F)Nc1nc2cc(OS(=O)(=O)c3ccc(NC4CCCC4)cc3)ccc2[nH]1 [Example 58-h, 4-Cyclopentylamino-benzenesulfonic acid 2-[3-(2-fluoro-benzyl)-ureido]-1H-benzoimidazol-5-yl ester] |
| 1500 | – | – | COC(=O)Nc1nc2ccc(OS(=O)(=O)c3ccc(OCc4ccccc4)cc3)cc2[nH]1 [Example 63, 4-benzyloxy-benzenesulfonic acid 2-methoxycarbonylamino-1H-benzoimidazol-5-yl ester] |
| 600 | – | – | COCCNc1ccc(S(=O)(=O)Oc2ccc3[nH]c(NC(=O)NCCN4CCOCC4)nc3c2)cc1 [Example 78-e, 4-(2-Methoxy-ethylamino)-benzenesulfonic acid 2-[3-(2-morpholin-4-yl-ethyl)-ureido]-1H-benzoimidazol-5-yl ester] |
| 600 | – | – | CC[C@@H](CO)Nc1ccc(S(=O)(=O)Oc2ccc3[nH]c(NC(=O)C4CC4)nc3c2)cc1 [Example 60-r, 4-(1S-Hydroxymethyl-propylamino)-benzenesulfonic acid 2-(cyclopropanecarbonyl-amino)-1H-benzoimidazol-5-yl ester] |
